In ChEMBL document CHEMBL3044684, “Synthesis and cytotoxic activity of novel benzopyrano[3,2-c]chromene-6,8-dione derivatives” (Med Chem Res, 2011) one finds IC16 and IC50 data, which are given here for 16 molecules.

Some results are limits rather than exact numbers.

Type in all cases: functional, cell-based
The test system of one assay is MCF7. Description: Cytotoxicity against Homo sapiens (human) MCF7 cells after 96 hr by MTT assay. Particulars: MCF7, 96 h. (Tetrazolium assays rely on reduction of a dye to a coloured formazan, in cell work by metabolically active cells.)
A further assay concerns HeLa. Description: Cytotoxicity against Homo sapiens (human) HeLa cells after 96 hr by MTT assay.
The next assay has as its system Raji. Nature of the assay: Cytotoxicity against Homo sapiens (human) Raji cells after 96 hr by MTT assay.
The nature of assay [1]: Cytotoxicity against Homo sapiens (human) LS180 cells after 96 hr by MTT assay. Particulars: LS180, 96 h.

Usually IC50 stands for the concentration needed to halve the response being measured. Read a high IC50 as lower potency. Consider `O=C1CCCC2=C1C(c1cccc(Br)c1)c1c(c3ccccc3oc1=O)O2` (stereo not drawn), for which the IC16 with MCF7 is greater than 50 µM; in the assay with HeLa it was 21.9 µM; in the assay on Raji, 11.3 µM; in assay [1] it was 35.1 µM. For the same molecule, the half-inhibitory concentration (IC50) in the assay with MCF7 is greater than 50 µM; in the assay with HeLa, 61.6 µM; with Raji, 49.3 µM; in assay [1] it was 83.8 µM.
On to `O=C1CCCC2=C1C(c1ccc(Br)cc1)c1c(c3ccccc3oc1=O)O2` (stereo not drawn), for which the IC16 is 15.7 µM with MCF7, greater than 100 µM in the assay with HeLa, 22.4 µM in the assay with Raji and greater than 100 µM in assay [1]. Also, the IC50 is 49.3 µM in the assay with MCF7, greater than 100 µM in the assay on HeLa, 82.4 µM in the assay on Raji and greater than 100 µM in assay [1].
As to `O=C1CCCC2=C1C(c1ccccc1Cl)c1c(c3ccccc3oc1=O)O2` (stereo not drawn), the IC16 (in the assay with MCF7; in the assay on HeLa; in the assay with Raji; in assay [1]) was greater than 25 µM throughout. The IC50 (with MCF7; in the assay on HeLa; in the assay with Raji; in assay [1]) was greater than 25 µM throughout.
Consider `O=C1CCCC2=C1C(c1cccc(Cl)c1)c1c(c3ccccc3oc1=O)O2` (stereo not drawn), for which the IC16 was greater than 50 µM in the assay on MCF7, greater than 50 µM in the assay with HeLa, 23.9 µM in the assay with Raji and greater than 50 µM in assay [1]. For the same molecule, the 50% inhibitory concentration (IC50) (in the assay on MCF7; in the assay with HeLa; with Raji; in assay [1]) was greater than 50 µM each time.
`O=C1CCCC2=C1C(c1ccc(Cl)cc1)c1c(c3ccccc3oc1=O)O2` (stereo not drawn): the IC16 is 54.7 µM in the assay on MCF7, 17.9 µM in the assay on HeLa, 59 µM in the assay with Raji and greater than 100 µM in assay [1]. Moreover, the IC50 in the assay with MCF7 was greater than 100 µM; in the assay with HeLa, 55.8 µM; in the assay with Raji it was greater than 100 µM; in assay [1], greater than 100 µM.
Regarding `COc1ccccc1C1C2=C(CCCC2=O)Oc2c1c(=O)oc1ccccc21` (stereo not drawn), the IC16 in the assay on MCF7 was greater than 100 µM; in the assay with HeLa, 37.6 µM; in the assay with Raji it was 30.3 µM; in assay [1] it was 52.1 µM. Also, the IC50 is greater than 100 µM in the assay on MCF7, 74.3 µM in the assay with HeLa, greater than 100 µM with Raji and greater than 100 µM in assay [1].
Consider `COc1cccc(C2C3=C(CCCC3=O)Oc3c2c(=O)oc2ccccc32)c1` (stereo not drawn), for which the IC16 came to 22.2 µM in the assay with MCF7, 25.3 µM in the assay with HeLa, 13.1 µM with Raji and 48.9 µM in assay [1]. For the same molecule, the half-inhibitory concentration (IC50) in the assay with MCF7 came out at 58.6 µM; in the assay on HeLa it was 89.9 µM; in the assay with Raji it was 49.2 µM; in assay [1] it was 99.7 µM.
On to `COc1ccc(C2C3=C(CCCC3=O)Oc3c2c(=O)oc2ccccc32)cc1` (stereo not drawn), for which the IC16 in the assay on MCF7 was found to be 35.9 µM; in the assay with HeLa it was 48.7 µM; in the assay with Raji, 33.1 µM; in assay [1], 100 µM. The IC50 in the assay on MCF7 was 76.3 µM; in the assay with HeLa, 97.9 µM; with Raji, greater than 100 µM; in assay [1] it was greater than 100 µM.
With `Cc1ccccc1C1C2=C(CCCC2=O)Oc2c1c(=O)oc1ccccc21` (stereo not drawn), the IC16 is 30.9 µM with MCF7, 42.9 µM in the assay with HeLa, 26.4 µM in the assay with Raji and 53.8 µM in assay [1]. Besides, the concentration for half-maximal inhibition (IC50) with MCF7 is greater than 100 µM; in the assay with HeLa, greater than 100 µM; in the assay with Raji, 79.7 µM; in assay [1], greater than 100 µM.
Take `Cc1cccc(C2C3=C(CCCC3=O)Oc3c2c(=O)oc2ccccc32)c1` (stereo not drawn): the IC16 with MCF7 was 42.8 µM; with HeLa, 41.7 µM; in the assay on Raji it was 26.7 µM; in assay [1], 47 µM. The IC50 was greater than 100 µM in the assay on MCF7, greater than 100 µM in the assay on HeLa, 72.7 µM in the assay with Raji and greater than 100 µM in assay [1].
For the molecule `Cc1ccc(C2C3=C(CCCC3=O)Oc3c2c(=O)oc2ccccc32)cc1` (stereo not drawn), the IC16 in the assay on MCF7 is 49.2 µM; in the assay with HeLa it was 38.8 µM; in the assay with Raji, 8.5 µM; in assay [1], 74.2 µM. Also, the IC50 was greater than 100 µM with MCF7, greater than 100 µM in the assay with HeLa, 78.9 µM in the assay with Raji and greater than 100 µM in assay [1].
Turning to `O=C1CCCC2=C1C(c1ccccc1[N+](=O)[O-])c1c(c3ccccc3oc1=O)O2` (stereo not drawn), the IC16 with MCF7 was 28 µM; in the assay on HeLa it was 18.1 µM; in the assay with Raji, 14.9 µM; in assay [1] it was greater than 100 µM. Moreover, the IC50 is 59.5 µM in the assay with MCF7, greater than 100 µM with HeLa, 54.8 µM in the assay with Raji and greater than 100 µM in assay [1].
`O=C1CCCC2=C1C(c1cccc([N+](=O)[O-])c1)c1c(c3ccccc3oc1=O)O2` (stereo not drawn): the IC16 is 23.1 µM with MCF7, 26.2 µM in the assay on HeLa, 55.8 µM in the assay with Raji and 60.9 µM in assay [1]. Moreover, the IC50 is 80.3 µM in the assay with MCF7, 63.1 µM in the assay with HeLa, greater than 100 µM in the assay with Raji and greater than 100 µM in assay [1].
Take `O=C1CCCC2=C1C(c1ccc([N+](=O)[O-])cc1)c1c(c3ccccc3oc1=O)O2` (stereo not drawn): the IC16 with MCF7 is 26 µM; in the assay on HeLa, greater than 100 µM; in the assay on Raji it was 47.7 µM; in assay [1], 32.6 µM. The IC50 is 61.7 µM with MCF7, greater than 100 µM with HeLa, greater than 100 µM in the assay with Raji and 75.7 µM in assay [1].
As to `O=C1CCCC2=C1C(c1ccccc1Br)c1c(c3ccccc3oc1=O)O2` (stereo not drawn), the IC16 (with MCF7; in the assay with HeLa; in the assay on Raji; in assay [1]) was greater than 100 µM throughout. The IC50 (with MCF7; in the assay with HeLa; with Raji; in assay [1]) was greater than 100 µM each time.
`COc1cccc2c1C(=O)c1c(O)c3c(c(O)c1C2=O)C[C@@](O)(C(=O)CO)C[C@@H]3O[C@H]1C[C@H](N)[C@H](O)[C@H](C)O1` [DOXORUBICIN]: the IC16 with MCF7 came to 0.051 µM; in the assay with HeLa, 0.015 µM; with Raji, 0.012 µM; in assay [1], 0.03 µM. In addition, the IC50 in the assay on MCF7 turned out to be 0.211 µM; in the assay with HeLa, 0.053 µM; in the assay on Raji, 0.039 µM; in assay [1], 0.13 µM.
